“And” between values parts separate entries of the source, which are not always exact repeats. Equal values may be shown once.
What was measured:
[1] = tested on: eyes of presbyopic (emmetropic or slightly hyperopic) patients; assay: Unaided near visual acuity (UNVA) at 40 centimeters, hand-held Rosembaum chart, Jaeger notation; assay type: in vivo, human; parameters: key to 1 h UNVA: J1+ is fine “normal” near vision (equivalent to 20/20 in Snellen terms); J1 is good near vision (equivalent to 20/25 in Snellen terms); J2 and J3 are fair and functional near vision, respectively (equivalent to 20/30 and 20/40, respectively, in Snellen terms); J2 and J3 are fair and functional near vision, respectively (equivalent to 20/30 and 20/40, respectively, in Snellen terms); settings: Example 3
Protocol: Measurements on the Jaeger scale, a near vision scale, are used and described herein. […]
(§1) A group of 10 patients (20 eyes) considered emmetropes or slightly hyperopic (Spherical equivalent from +0.88 D to −0.13 D with less than 1.00 D of astigmatism) was treated with a composition of the invention.
(§2) One drop containing 1% pilocarpine and 0.025% oxymetazoline w/w dissolved in a solution of 0.5% sodium chloride, with carboxymethyl cellulose as a viscosant and benzalkonium chloride as preservative were instilled once into the right eye, and the same solution containing 1% pilocarpine without oxymetazoline was instilled once into the left eye and the same measurements were taken one hour, four hours and six hours later. (Each patient acted as its own control) (Table 2). […]

[2] = tested on: eyes of presbyopic (emmetropic or slightly hyperopic) patients; assay: Refractive power of each eye (sphere, cylinder, spherical equivalent); assay type: in vivo, human; settings: Example 3
Excerpt: The following terms are ophthalmic terms commonly used by those of skill in the art. “OD” stands for oculus dexter and means right eye. “OS” stands for oculus sinister and means left eye. “UDVA” stands for unaided distance visual acuity. “UNVA” stands for unaided near visual acuity. “Sph” is the sphere, or the amount of magnification/demagnification that the eye needs to see properly. A negative sphere indicates myopia, and a positive sphere indicates hyperopia. “Cyl” is the cylinder, which is a measure of astigmatism. “Pre” indicates the condition of the eye prior to treatment, 1 h indicates the condition of the eye 1 hour after treatment, 4 h indicates the condition of the eye 4 hours after treatment, and 6 h indicates the condition of the eye 6 hours after treatment. “Sph Eq” is the spherical equivalent.
A group of 10 patients (20 eyes) considered emmetropes or slightly hyperopic (Spherical equivalent from +0.88 D to −0.50 D with less than 1.00 D of astigmatism) was treated with a composition of the invention.
Three drops containing 1% pilocarpine and 0.125% oxymetazoline w/w dissolved in a solution of 0.5% sodium chloride, with carboxymethyl cellulose as a viscosant and benzalkonium chloride as preservative were instilled into each eye three times separated 5 minutes each, and the same measurements were taken one hour, four hours and six hours later (Table 1). As shown in Table 1 and FIGS. 1-2, there was an average gain of 3.7 units of unaided near visual acuity while losing 0.7 lines of uncorrected distance visual acuity at one hour after instillation. […] The improvement in near vision was more pronounced in younger patients and the lack of detriment of the distance vision (FIG. 2) was more marked in hyperopic patients. […]
After a two-week washout period, five of the patients from example 1 were treated with a combination of 1% pilocarpine and 0.015% meloxicam dissolved in a solution of 0.5% sodium chloride in water plus carboxymethyl cellulose as viscosant and benzalkonium chloride as a preservative, and the same measurements in example 1 were taken at one hour, four hours, and eight hours later. […]

patients' eyes = settings: cited from earlier work
[3] = tested on: eyes of presbyopic (emmetropic or slightly hyperopic) patients; assay: Unaided distance visual acuity (UDVA), Snellen chart; assay type: in vivo, human; settings: Example 3
Protocol: as §1, §2

pupil of patients' eyes = assay: Pupillary diameter in medium lighting (mesopic) conditions, infrared camera device; assay type: in vivo, human; settings: Example 3
Protocol: as §1, §2

With `CC[C@@H]1C(=O)OC[C@@H]1Cc1cncn1C` [Pilocarpine alone, pilocarpine] the “improvement in near vision, compared with pilocarpine + oxymetazoline” value ([1]; FIG. 3) was “smaller and tended to wear out earlier”, the “1 h UNVA” value ([1]; one drop once, OD 1% pilocarpine + 0.025% oxymetazoline, OS 1% pilocarpine alone, single eyes of 10 patients, 1 h) was “J1 and J1+ and J2 and J3” and the induced astigmatism [2] was “seemed to induce more astigmatism”. The “1 h Cyl, AVERAGE” value ([2]; average per treatment, 1 h) was −0.59, the “1 h Sph Eq, AVERAGE” value ([2]; average per treatment, 1 h) was −0.61 and the “1 h Sph, AVERAGE” value ([2]; average per treatment, 1 h) was −0.32. For the same compound, the “4 h Cyl, AVERAGE” value ([2]; average per treatment, 4 h) was −0.59, the “4 h Sph Eq, AVERAGE” value ([2]; average per treatment, 4 h) was −0.43 and the “4 h Sph, AVERAGE” value ([2]; average per treatment, 4 h) was −0.14. For the same compound, the “6 h Cyl, AVERAGE” value ([2]; average per treatment, 6 h) was −0.43, the “6 h Sph Eq, AVERAGE” value ([2]; average per treatment, 6 h) was 0.35 and the “6 h Sph, AVERAGE” value ([2]; average per treatment, 6 h) was 0.57. The decrease in hyperopia (patients' eyes; one patient, 0.3% topical pilocarpine, U.S. Pat. Nos. 6,291,466 and 6,410,544) was “less than half”, the tolerability (patients' eyes; topical concentrations above 0.5%) was “not tolerated due to side effects such as red eyes, ocular pain, brow ache, and headache” and the “effect in the accommodation of the eye” value (patients' eyes; topical concentrations below 0.5%) was “minimal effect”. The “decrease in distance vision, compared with pilocarpine + oxymetazoline” value ([3]; FIG. 4, at the 1 and 4 hour time points) was “more decrease in distance vision”, the “1 h UDVA” value ([3]; one drop once, OD 1% pilocarpine + 0.025% oxymetazoline, OS 1% pilocarpine alone, single eyes, 1 h) was 20/50 and 20/30 and 20/40 and the “4 h UDVA” value ([3]; one drop once, OD 1% pilocarpine + 0.025% oxymetazoline, OS 1% pilocarpine alone, single eyes, 4 h) was 20/40 and 20/20 and 20/30 and 20/25 and 20/50. For the same compound, the “6 h UDVA” value ([3]; one drop once, OD 1% pilocarpine + 0.025% oxymetazoline, OS 1% pilocarpine alone, single eyes, 6 h) was 20/30 and 20/20 and 20/25, the “1 h Pupil” value (pupil of patients' eyes; OD 1% pilocarpine + 0.025% oxymetazoline, OS 1% pilocarpine alone, single eyes, 1 h) was 2.1 and 2.3 and 2.2 and 2.4 and 2.5 and the “4 h Pupil” value (pupil of patients' eyes; OD 1% pilocarpine + 0.025% oxymetazoline, OS 1% pilocarpine alone, single eyes, 4 h) was 2.7 and 2.8 and 2.5 and 2.9 and 2.4 and 3 and 2.6 and 3.1. For the same compound, the “6 h Pupil” value (pupil of patients' eyes; OD 1% pilocarpine + 0.025% oxymetazoline, OS 1% pilocarpine alone, single eyes, 6 h) was 4.9 and 4.7 and 4.4 and 4.2 and 4.1, the “1 h Pupil, AVERAGE” value (pupil of patients' eyes; average per treatment, 1 h) was 2.05 and the “4 h Pupil, AVERAGE” value (pupil of patients' eyes; average per treatment, 4 h) was 2.52. The “6 h Pupil, AVERAGE” value (pupil of patients' eyes; average per treatment, 6 h) was 4.13.

For `Brc1c(NC2=NCCN2)ccc2nccnc12` [brimonidine], the “side effects of topical administration” value (patients' eyes; known to those in the art) is given as “lightheadedness, dizziness, dry mouth, tachycardia, and stomach upset”.

In the case of `O=C(O)Cc1ccccc1Nc1c(Cl)cccc1Cl` [diclofenac], the “serious side effects (Congdon et al.)” value (patients' eyes; topical ophthalmic use) is given as “persistent epithelial defects, corneal melting, and corneal perforation”.

Source: patent US9301933B2, “Compositions and methods for treating presbyopia, mild hyperopia, and irregular astigmatism” (ALLERGAN, INC., priority 2011, dated 2016)
